From EP2910557A1, “Enantiopure tetrasubstituted pyrrolidines as scaffolds for proteasome inhibitors and medicinal applications thereof” (Ikerchem, S.L., priority 2014, dated 2015)

What was measured:
[1] = target: T1, Human erythrocyte 20S proteasome (Homo sapiens, UniProt P28074); test: In vitro enzymatic assay of proteasome inhibitory activity (Suc-Leu-Leu-Val-Tyr-AMC substrate); format: biochemical
T1 construct: Enzyme: Human erythrocyte 20S proteasome; from tissue; host or cells: human erythrocytes
Protocol: Example 20: In vitro enzymatic assay of proteasome inhibitory activity.
Substrate: Suc-Leu-Leu-Val-Tyr-AMC
Assay buffer: 250 mM HEPES, pH 7.5, 0.5 mM EDTA, 0.03% SDS, 0.05% Igepal CA-630.
Enzyme: Human erythrocyte 20S proteasome
In vitro proteasome inhibitory activity of the compounds of the invention is evaluated by spectrofluorimetric quantitation of AMC. Stock solutions of compounds of the invention are prepared in dimethyl sulphoxide (DMSO). Test compound and/or vehicle is preincubated with […] enzyme (human erythrocyte 20S proteasome) in modified HEPES buffer pH 7.5 and 1% final concentration of DMSO for 15 minutes at 37°C. The reaction is initiated by addition of 10 µM Suc-Leu-Leu-Val-Tyr-AMC for another 30 minutes incubation period at 37°C. Determination of the release of AMC is read spectrophotometrically (excitation, 380 nm; emission, 460 nm). IC50 values are determined by a non-linear, least squares regression analysis using MathlQTM (ID Business Solutions Ltd., UK).

MIA PaCa-2 = test: Cancer cell growth inhibition, 72 h treatment; format: cell-based; details: Homo sapiens, Pancreatic cancer MIA PaCa-2, Alamar Blue
Protocol: (§1) Cell culture-based assays were used to evaluate the ability of compounds of the invention to inhibit cancer cell growth.
(§2) Cells were obtained from the American Type Culture Collection (ATCC) and the European Collection of Cell Cultures. Cells were thawed in their appropriate media plus supplements (see table below). Cells were passaged at confluence by washing once in HBSS cation-free followed by a 3 minutes incubation with trypsin ([0.5 µg/ml]/EDTA [0.2 µg/ml]) (Gibco-BRL, 15400054) solution in HBSS at 37°C (except non-adherent cell lines - hematologic), and transferred to their appropriate media plus supplements. Prior to seeding at defined cell concentration, cells were recovered in medium, centrifuged, taken up in medium and counted.
(§3) All treatments were performed in triplicate. Experiments were carried out in 96-well cell culture plates (Cultek) and the cell lines seeded at the density mentioned in the table above and cultured at 37°C with 5% CO2. After 24h, media were supplemented by 100 µl/well of diluted test compound at variable final concentrations and incubated for 72 hours. Then, AlamarBlue® Reagent (Biosource DAL1100) was added to each well and incubated at 37°C for 4 hours. Relative fluorescent intensity that correlates with the number of living cells was read in a Cytofluor plate reader (Millipore) at 535/590 nm (Excitation/emission). After reading the AlamarBlue® signal, the hexosaminidase activitity was measured according to the following protocol: medium was removed and cells were washed once with PBS. 60 µl of substrate solution (p-nitrophenol-N-acetyl-beta-D-glucosaminide 7.5 mM [Sigma N-9376], sodium citrate 0.1 M, pH 5.0, 0.25% Triton X-1 00) was added to each well and incubated at 37°C for 1-2 hours; after this incubation time, a bright yellow colour appears; then, plates could be developed by adding 90 µl of developer solution (Glycine 50 mM, pH 10.4; EDTA 5 mM), and absorbance was recorded at 405 nm.
(§4) Note: In all cases assays were performed in Alamar Blue with the exception of those indicated (* = Hexosaminidase assay)

A549 = test: Cancer cell growth inhibition, 72 h treatment; format: cell-based; details: Homo sapiens, Lung cancer A549, Hexosaminidase assay (*)
Protocol: as §1, §2, §3, §4

LoVo = test: Cancer cell growth inhibition, 72 h treatment; format: cell-based; details: Homo sapiens, Colon cancer LoVo, Alamar Blue
Protocol: as §1, §2, §3, §4

DU-145 = test: Cancer cell growth inhibition, 72 h treatment; format: cell-based; details: Homo sapiens, Prostate cancer DU-145, Alamar Blue
Protocol: as §1, §2, §3, §4

RAMOS = test: Cancer cell growth inhibition, 72 h treatment; format: cell-based; details: Homo sapiens, Hematologic RAMOS, Alamar Blue
Protocol: as §1, §2, §3, §4

MDA-MB-231 = test: Cancer cell growth inhibition, 72 h treatment; format: cell-based; details: Homo sapiens, Breast cancer MDA-MB-231, Alamar Blue
Protocol: as §1, §2, §3, §4

MCF-7 = test: Cancer cell growth inhibition, 72 h treatment; format: cell-based; details: Homo sapiens, MCF7, Breast cancer MCF-7, Alamar Blue
Protocol: as §1, §2, §3, §4

LS174T = test: Cancer cell growth inhibition, 72 h treatment; format: cell-based; details: Homo sapiens, Colon cancer LS174T, Alamar Blue
Protocol: as §1, §2, §3, §4

HCT-116 = test: Cancer cell growth inhibition, 72 h treatment; format: cell-based; details: Homo sapiens, Colon cancer HCT-116, Alamar Blue
Protocol: as §1, §2, §3, §4

COLO 205 = test: Cancer cell growth inhibition, 72 h treatment; format: cell-based; details: Homo sapiens, Colon cancer COLO 205, Alamar Blue
Protocol: as §1, §2, §3, §4

SW480 = test: Cancer cell growth inhibition, 72 h treatment; format: cell-based; details: Homo sapiens, Colon cancer SW480, Hexosaminidase assay (*)
Protocol: as §1, §2, §3, §4

HT-29 = test: Cancer cell growth inhibition, 72 h treatment; format: cell-based; details: Homo sapiens, Colon cancer HT-29, Alamar Blue
Protocol: as §1, §2, §3, §4

Daoy = test: Cancer cell growth inhibition, 72 h treatment; format: cell-based; details: Homo sapiens, Brain Daoy, Alamar Blue
Protocol: as §1, §2, §3, §4

K562 = test: Cancer cell growth inhibition, 72 h treatment; format: cell-based; details: Homo sapiens, Hematologic K562, Alamar Blue
Protocol: as §1, §2, §3, §4

U-87 MG = test: Cancer cell growth inhibition, 72 h treatment; format: cell-based; details: Homo sapiens, Brain U-87 MG, Hexosaminidase assay (*)
Protocol: as §1, §2, §3, §4

SK-HEP-1 = test: Cancer cell growth inhibition, 72 h treatment; format: cell-based; details: Homo sapiens, SK-HEP1, Liver cancer SK-HEP-1, Alamar Blue
Protocol: as §1, §2, §3, §4

SK-BR-3 = test: Cancer cell growth inhibition, 72 h treatment; format: cell-based; details: Homo sapiens, Breast cancer SK-BR-3, Hexosaminidase assay (*)
Protocol: as §1, §2, §3, §4

A431 = test: Cancer cell growth inhibition, 72 h treatment; format: cell-based; details: Homo sapiens, A-431, Epidermoid A431, Alamar Blue
Protocol: as §1, §2, §3, §4

NCI-H358 = test: Cancer cell growth inhibition, 72 h treatment; format: cell-based; details: Homo sapiens, Lung cancer NCI-H358, Alamar Blue
Protocol: as §1, §2, §3, §4

HT-1080 = test: Cancer cell growth inhibition, 72 h treatment; format: cell-based; details: Homo sapiens, Fibrosarcoma HT-1080, Hexosaminidase assay (*)
Protocol: as §1, §2, §3, §4

SK-Mel-28 = test: Cancer cell growth inhibition, 72 h treatment; format: cell-based; details: Homo sapiens, Melanoma SK-Mel-28, Alamar Blue
Protocol: as §1, §2, §3, §4

BxPC-3 = test: Cancer cell growth inhibition, 72 h treatment; format: cell-based; details: Homo sapiens, Pancreatic cancer BxPC-3, Hexosaminidase assay (*)
Protocol: as §1, §2, §3, §4

HeLa = test: Cancer cell growth inhibition, 72 h treatment; format: cell-based; details: Homo sapiens, Cervical HeLa, Alamar Blue
Protocol: as §1, §2, §3, §4

## CC(C)C[C@H](NC(=O)[C@@H]1N[C@H](c2ccccc2)[C@@H]([N+](=O)[O-])[C@@H]1c1ccc(F)cc1)B(O)O [Example 6, (R)-1-((2R,3R,4S,5R)-3-(4-fluorophenyl)-4-nitro-5-phenylpyrrolidine-2-carboxamido)-3-methylbutylboronic acid]
[1]; Concentration 50 nM
  inhibition at 0.05 µM: 70%
[1]; human erythrocyte 20S proteasome, 10 µM Suc-Leu-Leu-Val-Tyr-AMC, 37°C
  IC50: 0.017 µM
MIA PaCa-2
  EC50: 83 µM
A549
  EC50: 12 µM
LoVo
  EC50: 15 µM
DU-145
  EC50: 3.5 µM
RAMOS
  EC50: 2.4 µM
MDA-MB-231
  EC50: 11 µM
MCF-7
  EC50: 1.9 µM
LS174T
  EC50: 0.6 µM
HCT-116
  EC50: 2.2 µM
COLO 205
  EC50: 2.4 µM
SW480
  EC50: 13 µM
HT-29
  EC50: 27 µM
Daoy
  EC50: 3.7 µM
K562
  EC50: 15 µM
U-87 MG
  EC50: 12 µM
SK-HEP-1
  EC50: 1.9 µM
SK-BR-3
  EC50: 6 µM
A431
  EC50: 0.1 µM
NCI-H358
  EC50: 3.3 µM
HT-1080
  EC50: 16 µM
SK-Mel-28
  EC50: 13 µM
BxPC-3
  EC50: 5.8 µM
HeLa
  EC50: 54 µM
